US20210221866A1, “PROTEASE-RESISTANT LIPIDATED GLP-1 ANALOGS” (MEDIMMUNE LIMITED, priority 2015, published 2021)
Where two headings read alike, the source gives them in different places. Numbered stars: 1 amine (or outer) side, 2 acyl side, 3 side chain; on linkers, the order of the positions; unused ones are H or OH. Square brackets hold non-standard residues; d marks the D form. Side chains are listed from the residue outwards. Peptide text beside a SMILES is read from it. * marks the point of attachment. γGlu = O=C(O)[C@H](CCC(=O)[*:2])N[*:1]; αMeF = C[C@](N)(Cc1ccccc1)C(=O)O; αMeK = C[C@](N)(CCCCN)C(=O)O; Lauroyl = CCCCCCCCCCCC(=O)*; AEEA = NCCOCCOCC(=O)O; Aib = CC(C)(N)C(=O)O

What was measured:
Assay type in all cases: cell-based
[1] = biological target: T1, human GLP-1 receptor (GLP-1R) (Homo sapiens, UniProt P43220); assay: cAMP assay, human GLP-1R cells; settings: cAMP activity
T1 construct: expressed in transfected cells; host or cells: HEK293 cells or CHO cells
In short: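 Peptide-stimulated cAMP measured by two-step HTRF after a 30 min room-temperature incubation with receptor-expressing cells (hGLP-1R, hGIPR at 1×10^5 cells/ml; hGCGR at 2×10^5 cells/ml). Duplicate dilutions; EC50 from 4-parameter logistic fit of % Delta F.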

[2] = biological target: T2, human glucagon receptor (GCGR) (Homo sapiens, UniProt P47871); assay: cAMP assay, human GCGR cells
T2 construct: expressed in transfected cells; host or cells: HEK293 cells or CHO cells
Method: (§1) Sample dilutions are made in duplicate.
(§2) A frozen cryo-vial of cells expressing the receptor of interest is thawed rapidly in a water-bath, transferred to pre-warmed assay buffer and spun at 240×g for 5 minutes. Cells are re-suspended in assay buffer at a batch-dependent optimized concentration (e.g. hGCGR cells at 2×10^5 cells/ml, hGLP-1R and hGIPR cells at 1×10^5 cells/ml).
(§3) To this, 5 μL cell suspension is added and the plates incubated at room temperature for 30 minutes.
(§4) cAMP levels are measured using a commercially available cAMP dynamic 2 HTRF kit (Cisbio, Cat #62AM4PEJ), following the two step protocol as per manufacturer's recommendations. In brief; anti-cAMP cryptate (donor fluorophore) and cAMP-d2 (acceptor fluorophore) are made up separately by diluting each 1/20 in conjugate & lysis buffer provided in the kit. 5 μL anti-cAMP cryptate is added to wells of the assay plate, and 5 μL cAMP-d2 is added to wells except non-specific binding (NSB) wells, to which conjugate and lysis buffer are added. […] EC50 values of the synthetic peptides determined in cAMP assays are then determined.
(§5) Data is transformed to % Delta F as described in the manufacturer's guidelines and analyzed by 4-parameter logistic fit to determine EC50 values. […] To compare the balance of activities at the GLP-1R and GCGR between different peptides and across different conditions, these can be correlated, where the EC50's are related to those of comparator peptides.

[3] = biological target: T3, human glucose-dependent insulinotropic peptide receptor (GIPR) (Homo sapiens, UniProt P48546); assay: cAMP assay, human GIPR cells
T3 construct: expressed in transfected cells; host or cells: HEK293 cells or CHO cells
T3 sequence (P48546 22-466): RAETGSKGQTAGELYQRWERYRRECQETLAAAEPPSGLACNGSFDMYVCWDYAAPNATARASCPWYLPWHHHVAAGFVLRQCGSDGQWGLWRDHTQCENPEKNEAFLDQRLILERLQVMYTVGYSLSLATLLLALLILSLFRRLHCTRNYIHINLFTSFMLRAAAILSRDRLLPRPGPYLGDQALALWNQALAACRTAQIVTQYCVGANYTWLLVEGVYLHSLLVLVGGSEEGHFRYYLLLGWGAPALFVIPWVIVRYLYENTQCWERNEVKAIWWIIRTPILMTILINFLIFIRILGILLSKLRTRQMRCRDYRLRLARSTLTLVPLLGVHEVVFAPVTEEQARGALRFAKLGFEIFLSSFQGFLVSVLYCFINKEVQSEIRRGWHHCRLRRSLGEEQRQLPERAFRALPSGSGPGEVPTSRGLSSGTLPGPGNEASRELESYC
Method: as §1, §2, §3, §4, §5

[4] = Table 9, bis-lipidated peptides, first replicate, read-out: Primary assay EC50 Gluc-R (n1)
[5] = Table 9, bis-lipidated peptides, second replicate, read-out: Primary assay EC50 Gluc-R (n2)
[6] = Table 9, bis-lipidated peptides, first replicate, read-out: Primary assay EC50 GIP-R (n1)
[7] = Table 9, bis-lipidated peptides, second replicate, read-out: Primary assay EC50 GIP-R (n2)

T2 sequence (P47871 26-477): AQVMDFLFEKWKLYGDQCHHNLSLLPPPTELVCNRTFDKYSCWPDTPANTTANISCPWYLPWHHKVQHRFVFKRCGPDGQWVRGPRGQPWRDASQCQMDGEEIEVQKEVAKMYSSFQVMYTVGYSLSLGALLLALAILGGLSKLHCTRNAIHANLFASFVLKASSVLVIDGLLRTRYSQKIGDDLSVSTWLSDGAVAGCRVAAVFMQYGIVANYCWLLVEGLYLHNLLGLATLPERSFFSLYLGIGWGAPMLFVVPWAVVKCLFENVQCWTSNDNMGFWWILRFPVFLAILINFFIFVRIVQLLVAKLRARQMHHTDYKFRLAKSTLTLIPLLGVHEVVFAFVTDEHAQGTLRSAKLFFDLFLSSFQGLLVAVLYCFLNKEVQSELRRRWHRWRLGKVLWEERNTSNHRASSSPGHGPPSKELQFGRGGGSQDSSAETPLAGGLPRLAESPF
T1 sequence (P43220 24-463): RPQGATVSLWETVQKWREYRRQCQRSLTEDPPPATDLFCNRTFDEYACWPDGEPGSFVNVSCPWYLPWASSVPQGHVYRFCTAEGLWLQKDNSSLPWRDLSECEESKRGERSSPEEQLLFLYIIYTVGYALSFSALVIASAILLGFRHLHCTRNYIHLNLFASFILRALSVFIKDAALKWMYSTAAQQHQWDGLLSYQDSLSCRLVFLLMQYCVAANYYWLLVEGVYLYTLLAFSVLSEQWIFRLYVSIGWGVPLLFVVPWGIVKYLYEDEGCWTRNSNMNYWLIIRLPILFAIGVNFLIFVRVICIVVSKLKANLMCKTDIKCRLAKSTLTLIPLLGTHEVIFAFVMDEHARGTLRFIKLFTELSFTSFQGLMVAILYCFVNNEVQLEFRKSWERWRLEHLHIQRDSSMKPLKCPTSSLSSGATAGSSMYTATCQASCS

Structure (SMILES) | EC50 ([1]; first determination (n1), read-out: Primary assay EC50 GLP-1R n1) | EC50 ([1]; mean of n1 and n2, read-out: Mean pM GLP-1R) | EC50 ([1]; second determination (n2), read-out: Primary assay EC50 GLP-1R n2) | EC50 ([2]; cAMP activity, second determination (n2), read-out: Primary assay EC50 Gluc-R) | EC50 ([3]; cAMP activity, first determination (n1), read-out: Primary assay EC50 GIP-R) | EC50 ([3]; cAMP activity, second determination (n2), read-out: Primary assay EC50 GIP-R) | EC50 [2, 4] | EC50 [2, 5] | EC50 [3, 6] | EC50 [3, 7]
CC[C@H](C)[C@H](NC(=O)[C@](C)(Cc1ccccc1)NC(=O)[C@H](CCC(=O)O)NC(=O)[C@H](CCCCNC(=O)CCCCCNC(=O)CCCCCCCCCCCCCCCCC(=O)O)NC(=O)[C@H](C)NC(=O)[C@H](C)NC(=O)[C@H](CCC(=O)O)NC(=O)CNC(=O)[C@H](CCC(=O)O)NC(=O)[C@H](CC(C)C)NC(=O)[C@](C)(Cc1ccccc1)NC(=O)[C@H](CO)NC(=O)[C@](C)(CO)NC(=O)[C@@H](NC(=O)[C@H](CC(=O)O)NC(=O)[C@H](CO)NC(=O)[C@@H](NC(=O)[C@](C)(Cc1ccccc1)NC(=O)[C@H](CO)NC(=O)CNC(=O)[C@H](CCC(=O)O)NC(=O)C(C)(C)NC(=O)[C@@H](N)Cc1c[nH]cn1)[C@@H](C)O)C(C)C)C(=O)N[C@@H](C)C(=O)N[C@@](C)(Cc1ccccc1)C(=O)N[C@H](C(=O)N[C@H](C(=O)N[C@@](C)(CCCCN)C(=O)NCC(=O)NCC(N)=O)C(C)C)C(C)C [compound 158] | 140 pM | 148 pM | 160 pM | ≥ 28 nM | ≥ 28 nM | ≥ 28 nM | – | – | – | –
CCCCCCCCCCCC(=O)N[C@@H](CCC(=O)NCCOCCOCC(=O)NCCOCCOCC(=O)NCCCC[C@H](NC(=O)[C@H](C)NC(=O)[C@@H](NC(=O)[C@H](Cc1ccccc1)NC(=O)[C@H](CCC(=O)O)NC(=O)[C@](C)(CCCCN)NC(=O)[C@H](C)NC(=O)[C@H](C)NC(=O)[C@H](CCC(=O)O)NC(=O)CNC(=O)[C@H](CCC(=O)O)NC(=O)[C@H](CC(C)C)NC(=O)[C@H](Cc1ccc(O)cc1)NC(=O)[C@H](CO)NC(=O)[C@H](CO)NC(=O)[C@H](CCCCNC(=O)COCCOCCNC(=O)COCCOCCNC(=O)CC[C@H](NC(=O)CCCCCCCCCCC)C(=O)O)NC(=O)[C@H](CC(=O)O)NC(=O)[C@H](CO)NC(=O)[C@@H](NC(=O)[C@](C)(Cc1ccccc1)NC(=O)[C@H](CO)NC(=O)CNC(=O)[C@H](CCC(=O)O)NC(=O)C(C)(C)NC(=O)[C@@H](N)Cc1c[nH]cn1)[C@@H](C)O)[C@@H](C)CC)C(=O)N[C@H](C(=O)N[C@H](C(=O)N[C@@H](CCC(=O)O)C(=O)NCC(=O)NCC(N)=O)C(C)C)C(C)C)C(=O)O [compound 257] (H-H[Aib]EGS[αMeF]TSDK([AEEA-AEEA-γGlu-Lauroyl])SSYLEGEAA[αMeK]EFIAK([AEEA-AEEA-γGlu-Lauroyl])VVEGG-NH2) | – | – | – | – | – | – | ≥ 22.8 nM | ≥ 22.8 nM | ≥ 22.8 nM | ≥ 22.8 nM
CCCCCCCCCCCC(=O)N[C@@H](CCC(=O)NCCOCCOCC(=O)NCCOCCOCC(=O)NCCCC[C@H](NC(=O)[C@H](CC(=O)O)NC(=O)[C@H](CO)NC(=O)[C@@H](NC(=O)[C@](C)(Cc1ccccc1)NC(=O)[C@H](CO)NC(=O)CNC(=O)[C@H](CCC(=O)O)NC(=O)C(C)(C)NC(=O)[C@@H](N)Cc1c[nH]cn1)[C@@H](C)O)C(=O)N[C@@H](CO)C(=O)N[C@@H](CO)C(=O)N[C@@H](Cc1ccc(O)cc1)C(=O)N[C@@H](CC(C)C)C(=O)N[C@@H](CCC(=O)O)C(=O)NCC(=O)N[C@@H](CCC(=O)O)C(=O)N[C@@H](C)C(=O)N[C@@H](C)C(=O)N[C@@](C)(CCCCN)C(=O)N[C@@H](CCC(=O)O)C(=O)N[C@@H](Cc1ccccc1)C(=O)N[C@H](C(=O)N[C@@H](C)C(=O)N[C@@H](Cc1c[nH]c2ccccc12)C(=O)N[C@@H](CCCCNC(=O)COCCOCCNC(=O)COCCOCCNC(=O)CC[C@H](NC(=O)CCCCCCCCCCC)C(=O)O)C(=O)N[C@H](C(=O)N[C@@H](CCC(=O)O)C(=O)NCC(=O)NCC(N)=O)C(C)C)[C@@H](C)CC)C(=O)O [compound 258] (H-H[Aib]EGS[αMeF]TSDK([AEEA-AEEA-γGlu-Lauroyl])SSYLEGEAA[αMeK]EFIAWK([AEEA-AEEA-γGlu-Lauroyl])VEGG-NH2) | – | – | – | – | – | – | ≥ 22.3 nM | ≥ 22.3 nM | ≥ 22.3 nM | ≥ 22.3 nM
